Test [1] concerns the target T1, PS:C4BP complex (Homo sapiens, UniProt P04003+P20851).
T1 construct: Purified human C4BP was obtained from 5 liters (1) of human citrated plasma; from tissue; host or cells: human citrated plasma (C4BP); protein S per Schwarz et al
T1 sequence (P04003 49-597): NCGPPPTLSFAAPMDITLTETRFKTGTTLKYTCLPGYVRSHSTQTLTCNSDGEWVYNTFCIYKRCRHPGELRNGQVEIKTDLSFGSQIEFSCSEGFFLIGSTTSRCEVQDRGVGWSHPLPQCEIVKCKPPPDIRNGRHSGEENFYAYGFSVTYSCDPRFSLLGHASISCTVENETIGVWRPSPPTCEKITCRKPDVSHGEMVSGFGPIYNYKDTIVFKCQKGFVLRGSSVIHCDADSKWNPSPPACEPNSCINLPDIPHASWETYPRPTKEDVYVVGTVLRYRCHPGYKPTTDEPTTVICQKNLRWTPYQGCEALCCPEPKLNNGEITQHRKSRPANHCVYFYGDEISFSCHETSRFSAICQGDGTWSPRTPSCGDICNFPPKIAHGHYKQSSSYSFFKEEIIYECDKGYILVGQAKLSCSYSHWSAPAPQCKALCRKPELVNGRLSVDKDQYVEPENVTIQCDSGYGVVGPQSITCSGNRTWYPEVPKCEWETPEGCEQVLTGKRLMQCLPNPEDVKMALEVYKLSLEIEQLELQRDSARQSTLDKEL
T1 sequence (P20851 18-252): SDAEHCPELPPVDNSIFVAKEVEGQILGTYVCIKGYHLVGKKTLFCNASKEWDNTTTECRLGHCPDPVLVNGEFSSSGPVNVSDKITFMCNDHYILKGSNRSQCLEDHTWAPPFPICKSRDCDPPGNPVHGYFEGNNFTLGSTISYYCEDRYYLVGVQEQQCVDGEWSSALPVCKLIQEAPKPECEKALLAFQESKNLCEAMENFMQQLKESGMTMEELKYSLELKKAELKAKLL
Put plainly: Peptide inhibition of binding of b-C4BP to PS-coated wells. The protocol:
An alternative approach was used to test the ability of the peptides, PSP-loop and PSP-428K, in comparison with that seen with the PSP-12 peptide, in inhibiting the binding of C4BP to PS. For this assay, the microtiter wells were coated with purified PS diluted to a concentration of 10 µg/ml in carbonate-coating buffer as described above. The wells were maintained to allow the PS to bind to the well walls. After the maintenance period, the wells were blocked also as described above. The selected PSP peptides were separately admixed at various concentrations ranging from 0 - 500 µM with biotinylated-C4BP (b-C4BP) at a concentration of 1 µg/ml. The admixtures were maintained on a fluid phase plate for 2 hours at room temperature to form peptide-C4BP complexes.
Fifty µl of the complexed admixtures were separately admixed to the prepared C4BP-coated wells and maintained for 1 hour at room temperature. Thereafter, the plate was washed and processed for developing as described above.

In test [2] the target is T1, PS:C4BP complex. Put plainly: Fluid-phase peptide inhibition of b-PS binding to C4BP, detected on anti-C4BP polyclonal antibody-coated plates. As to the method:
(§1) An alternative approach was used to test the ability of the peptides, PSP-loop, PSP-424K and PSP-428K, in comparison with that seen with the PSP-12 peptide, in inhibiting the binding of PS to C4BP, the result of which was detected on polyclonal antibody-coated plates. For this assay, C4BP, biotinylated-PS (b-PS) and PSP peptides were admixed together at the respective concentrations of 3 µg/ml, 0.6 µg/ml and at a range of 0 - 500 µM (V:V:V). The admixtures were maintained for 2 hours at room temperature on a fluid phase plate to allow the binding and/or inhibition thereof of PS to C4BP by the PS-derived peptides. After the maintenance period, 50 µl of the admixture were separately admixed to wells previously coated with 10 µg/ml of anti-C4BP IgG polyclonal antibody. The admixtures were maintained for 1 hour at room temperature to allow for the binding of C4BP to C4BP-antibody-coated plates. The binding of biotinylated complexes to the antibody-coated plates was detected as described in Example 5Aii.

Test [3] concerns the target T1, PS:C4BP complex. Put plainly: Fluid-phase peptide inhibition of PS binding to b-C4BP, detected on MAb S-7-coated plates. As to the method: as §1, with “monoclonal” for “polyclonal”, “biotinylated-C4BP (b-C4BP), PS” for “C4BP, biotinylated-PS (b-PS)”, “0.5” for “3”, “1.0” for “0.6”, “MAb S-7 (ATCC No. HB 80819).” for “anti-C4BP IgG polyclonal antibody.”, “MAb S-7-antibody-coated” for “C4BP-antibody-coated”

The target of test [4] is T1, PS:C4BP complex. Description: Peptide Inhibition Assay: binding of b-PS to C4BP in solid phase. The note with it: subsequent experiments. As to the method:
Each of the peptides produced as described in Example 1 and listed in Table 1 was analyzed for its ability to inhibit the binding of native protein S in liquid-phase to C4BP in solid-phase.
Microtiter wells of a 96 well plate were coated with 50 µl of 10 µg/ml purified C4BP in carbonate buffer (0.02 M Na2CO3, pH 9.0, 0.02% Na-Azide). After blocking with 10% BSA in TBS, 50 µl of different concentrations of peptides diluted in washing buffer (TBS, 0.2% BSA, 5mM CaCl, 0.02% Tween 20) were separately admixed to C4BP-coated wells. After 2 hours at room temperature, 50 µl of a solution of biotinylated protein S, were admixed to each well to form a second binding admixture having a final concentration of 2 µg/ml. The plate was agitated and the samples were incubated 1 hour at room temperature. The samples were discarded and the wells were washed 3 times with washing buffer. To each well, 50 µl of strepavidin-alkaline-phosphatase (1 µg/ml washing buffer) were admixed and allowed to incubate for 30 minutes at room temperature. The strepavidin-alkaline-phosphatase was then discarded and the wells were washed 6 times with washing buffer. The resulting optical densities of the reaction solutions were read as described before in Example 2C.
Results of the assay are reported as percent inhibition of C4BP binding. Percent of inhibition of C4BP binding is defined as: I = 100% - 100 x (deltaT /deltaC ) [formula] • where I is expressed as a percent; and • where 100% = delta/min of the amount of b-PS which specifically bound to C4BP-coated wells in the absence of any competing PS-peptide; and • where deltaT = the change in absorbance (405 nm) in the presence of competing PS-peptide; and • where deltaC = the change in absorbance (405 nm) in the absence of competing PS-peptide.

The target in test [5] is T2, C4BP (Homo sapiens, UniProt P04003+P20851).
T2 sequence (P04003 49-597): T1 sequence (P04003 49-597)
T2 sequence (P20851 18-252): T1 sequence (P20851 18-252)
Particulars: in vitro; cited from earlier work.

In test [6] the target is T3, C4b binding protein (human, UniProt P04003 49-597; P20851 18-252).
T3 construct: mature; The beta chain is added from general knowledge; Biotinylated (b-C4BP) in some assays; also called C4BP; purified human C4BP
T3 sequence (looked up) 1: T1 sequence (P04003 49-597)
T3 sequence (looked up) 2: T1 sequence (P20851 18-252)
Put plainly: Fluid-phase competition of C4BP, b-PS and peptide; capture on anti-C4BP polyclonal IgG.

Test [7] concerns the target T3, C4b binding protein. Put plainly: Fluid-phase competition of b-C4BP, PS and peptide; capture on MAb S-7.
In test [8] the target is T3, C4b binding protein. Description: Competition ELISA, peptide preincubated with b-C4BP, PS-coated wells.

One may read the IC90 as the concentration needed for an effect of 90%.

Bridge positions count the residues as written; N and C are the ends. Ends that are not written are not given here. Peptide text beside a SMILES is read from it.

As for `CC[C@H](C)[C@H](NC(=O)CNC(=O)[C@@H](N)CO)C(=O)N[C@@H](CCCCN)C(=O)N[C@@H](CCCCN)C(=O)N[C@H](C(=O)N[C@H](C(=O)N[C@@H](CCC(N)=O)C(=O)N[C@@H](CCC(=O)O)C(=O)N[C@@H](CCCCN)C(=O)N[C@@H](CCC(N)=O)C(=O)N[C@@H](CC(N)=O)C(=O)N[C@@H](CCCCN)C(=O)N[C@@H](CS)C(N)=O)[C@@H](C)CC)[C@@H](C)CC` [PSP-424K] (H-SGIKKIIQEKQNKC-NH2), the IC90 in test [1] (b-C4BP 1 µg/ml, PS-coated wells, peptide 0 - 500 µM, read-out: IC90) is approximately 250 µM; in test [3] (b-C4BP 0.5 µg/ml, PS 1.0 µg/ml, peptide 0 - 500 µM, read-out: IC90) it was approximately 250 µM. Also, the IC50 is approximately 50 µM in test [1] (b-C4BP 1 µg/ml, PS-coated wells, peptide 0 - 500 µM, read-out: half-maximal inhibitory concentration (IC50)) and approximately 50 µM in test [3] (b-C4BP 0.5 µg/ml, PS 1.0 µg/ml, peptide 0 - 500 µM). The “inhibition of the binding of b-PS to C4BP” value in test [2] (compared with PSP-loop) is given as “also inhibitory but with lower effectiveness”.

With `CC[C@H](C)[C@@H]1NC(=O)[C@H](CO)NC(=O)[C@H](C)NC(=O)CNC(=O)[C@H](CCC(N)=O)NC(=O)[C@H](CCCCN)NC(=O)[C@H](CCSC)NC(=O)[C@H](CC(C)C)NC(=O)[C@H](CC(N)=O)NC(=O)[C@H](Cc2c[nH]c3ccccc23)NC(=O)[C@H](CO)NC(=O)[C@H](CCCNC(=N)N)NC(=O)[C@H]([C@@H](C)CC)NC(=O)[C@@H](N)CSSC[C@@H](C(N)=O)NC(=O)[C@H](Cc2c[nH]cn2)NC(=O)[C@H](CCCCN)NC(=O)[C@H](CC(N)=O)NC(=O)[C@H](CCC(N)=O)NC(=O)[C@H](CCCCN)NC(=O)[C@H](CCC(=O)O)NC(=O)[C@H](CCC(N)=O)NC(=O)[C@H]([C@@H](C)CC)NC(=O)[C@H]([C@@H](C)CC)NC(=O)[C@H](CCC(=O)O)NC(=O)[C@H](CCCCN)NC1=O` [PSP-loop] (H-CIRSWNLMKQGASIKEIIQEKQNKHC-NH2; disulfide 1-26; N-terminus assumed), the IC90 was 50 µM in test [1], approximately 400 µM in test [2] and approximately 100 µM in test [3]. Besides, the “peptide concentration that completely inhibits the binding of PS to C4BP” value in test [4] is “approximately 250 µM”.

Turning to “GVQLDLDEAI [synthetic peptide derived from the carboxy terminal region of protein S (residues 605 to 614 of mature PS)]”, the “effect on the interaction of protein S with C4BP” value in test [5] was “inhibits the interaction of protein S with C4BP in vitro”.

B1: PSP-loop (peptide)
peptide: CIRSWNLMKQGASIKEIIQEKQNKHC-NH2
modifications: cysteine pairing not given here
notes: also called loop peptide
Turning to B1, the IC50 in test [6] was approximately 40 µM; in test [7], approximately 35 µM; in test [8], approximately 15 µM. The molecule further came in with an IC90 in test [8] of 50 µM.

These data come from patent publication EP0592600B1, “PROTEINS S POLYPEPTIDES AND USES THEREOF” (THE SCRIPPS RESEARCH INSTITUTE, priority 1991, dated 1993).
